Experimental data: ChEMBL document CHEMBL1201862, “PubChem BioAssay data set” (2004)
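Method: 48-hour compound exposure of cells in 96-well plates, five concentrations, linear interpolation of endpoints. At the GI50, growth is halved.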 Activity calls are given as the source filed them. Cut-off read from the data, not from the text of the source: active = GI50 up to about 1.1 µM and inactive = higher.

Key:
Experiment in all cases: inhibition of tumour cell growth, NCI panel, 48 h
A498 = system: A498
A549 = system: A549
COLO 205 = system: COLO 205
EKVX = system: EKVX
HCC 2998 = system: HCC 2998
HOP-92 = system: HOP-92
HT-29 = system: HT-29
K562 = system: K562
M14 = system: M14
MDA-MB-231 = system: MDA-MB-231
OVCAR-8 = system: OVCAR-8
SK-MEL-28 = system: SK-MEL-28
SK-MEL-5 = system: SK-MEL-5
SK-OV-3 = system: SK-OV-3
T47D = system: T47D
UACC-62 = system: UACC-62
IGROV-1 = system: IGROV-1
KM12 = system: KM12
UO-31 = system: UO-31

SMILES | GI50 (A498) | GI50 (A549) | GI50 (COLO 205) | GI50 (EKVX) | GI50 (HCC 2998) | GI50 (HOP-92) | GI50 (HT-29) | GI50 (K562) | GI50 (M14) | GI50 (MDA-MB-231) | GI50 (OVCAR-8) | GI50 (SK-MEL-28) | GI50 (SK-MEL-5) | GI50 (SK-OV-3) | GI50 (T47D) | GI50 (UACC-62) | GI50 (IGROV-1) | GI50 (KM12) | GI50 (UO-31)
CC(=O)c1cnc2oc3ccc(O)cc3c2c1-c1ccccc1 | 17.5 µM (inactive) | 47.1 µM (inactive) | 30.3 µM (inactive) | 23.9 µM (inactive) | 38 µM (inactive) | 18.3 µM (inactive) | 95.5 µM (inactive) | 41.6 µM (inactive) | > 100 µM (inactive) | 25.2 µM (inactive) | 29.4 µM (inactive) | 17.5 µM (inactive) | 22.2 µM (inactive) | 14 µM (inactive) | 10.8 µM (inactive) | 20.5 µM (inactive) | – | – | –
N=C(N)SCc1ccc(Cl)cc1Cl.O=[N+]([O-])c1c(O)c(Cl)cc(Cl)c1Cl | 13.3 µM (inactive) | 22.3 µM (inactive) | 14.2 µM (inactive) | 15.3 µM (inactive) | 8.18 µM (inactive) | 11.5 µM (inactive) | 11 µM (inactive) | 4.35 µM (inactive) | 11.4 µM (inactive) | 10.7 µM (inactive) | 24.3 µM (inactive) | 28.9 µM (inactive) | 15.3 µM (inactive) | 17.3 µM (inactive) | 9.82 µM (inactive) | 14.4 µM (inactive) | 17.8 µM (inactive) | 13.7 µM (inactive) | 9.06 µM (inactive)
O=C(O)CC1(C(=O)O)CCCCC1 | > 100 µM (inactive) | > 100 µM (inactive) | > 100 µM (inactive) | > 100 µM (inactive) | > 100 µM (inactive) | > 100 µM (inactive) | > 100 µM (inactive) | > 100 µM (inactive) | > 100 µM (inactive) | > 100 µM (inactive) | > 100 µM (inactive) | > 100 µM (inactive) | > 100 µM (inactive) | > 100 µM (inactive) | > 100 µM (inactive) | > 100 µM (inactive) | > 100 µM (inactive) | > 100 µM (inactive) | > 100 µM (inactive)
O=C1CC(=O)NC(NNS(=O)(=O)c2ccc(Cl)cc2)=N1 | > 100 µM (inactive) | > 100 µM (inactive) | > 100 µM (inactive) | – | > 100 µM (inactive) | > 100 µM (inactive) | > 100 µM (inactive) | > 100 µM (inactive) | > 100 µM (inactive) | > 100 µM (inactive) | > 100 µM (inactive) | > 100 µM (inactive) | > 100 µM (inactive) | 58.5 µM (inactive) | > 100 µM (inactive) | > 100 µM (inactive) | > 100 µM (inactive) | > 100 µM (inactive) | > 100 µM (inactive)
COCn1c(C)c(C)c2c(=O)oc(C)nc21 | > 100 µM (inactive) | > 100 µM (inactive) | > 100 µM (inactive) | > 100 µM (inactive) | > 100 µM (inactive) | > 100 µM (inactive) | > 100 µM (inactive) | > 100 µM (inactive) | > 100 µM (inactive) | > 100 µM (inactive) | > 100 µM (inactive) | > 100 µM (inactive) | > 100 µM (inactive) | > 100 µM (inactive) | > 100 µM (inactive) | > 100 µM (inactive) | > 100 µM (inactive) | > 100 µM (inactive) | 89.1 µM (inactive)
C/C(=N\NC(=S)Nc1ccc(C)cc1)c1nc2cccnc2[nH]1 | 7.71 µM (inactive) | 2.33 µM (inactive) | 3.9 µM (inactive) | 0.61 µM (active) | 5.47 µM (inactive) | 6.38 µM (inactive) | 0.681 µM (active) | 2.9 µM (inactive) | – | 1.17 µM (inactive) | 3.05 µM (inactive) | 2.86 µM (inactive) | 1.76 µM (inactive) | 4.3 µM (inactive) | 0.406 µM (active) | 2.81 µM (inactive) | 2.31 µM (inactive) | 7.6 µM (inactive) | 0.649 µM (active)
COc1ccc(OC)c2c1C(=O)C(O)=C(Cl)C2=O | > 100 µM (inactive) | > 100 µM (inactive) | > 100 µM (inactive) | – | > 100 µM (inactive) | > 100 µM (inactive) | > 100 µM (inactive) | > 100 µM (inactive) | > 100 µM (inactive) | > 100 µM (inactive) | > 100 µM (inactive) | > 100 µM (inactive) | > 100 µM (inactive) | > 100 µM (inactive) | > 100 µM (inactive) | > 100 µM (inactive) | > 100 µM (inactive) | > 100 µM (inactive) | > 100 µM (inactive)
CN(C)CCCNC(=O)CCNC(=O)c1cc(NC(=O)c2cc(NC(=O)c3cc(NC(=O)c4nccn4C)cn3C)cn2C)cn1C | > 100 µM (inactive) | > 100 µM (inactive) | 20 µM (inactive) | > 100 µM (inactive) | > 100 µM (inactive) | > 100 µM (inactive) | > 100 µM (inactive) | > 100 µM (inactive) | > 100 µM (inactive) | > 100 µM (inactive) | > 100 µM (inactive) | > 100 µM (inactive) | > 100 µM (inactive) | > 100 µM (inactive) | 31 µM (inactive) | > 100 µM (inactive) | > 100 µM (inactive) | > 100 µM (inactive) | > 100 µM (inactive)
CC(C)(C)OC(=O)NCC(O)CNC(=O)OC(C)(C)C | > 100 µM (inactive) | > 100 µM (inactive) | > 100 µM (inactive) | > 100 µM (inactive) | > 100 µM (inactive) | > 100 µM (inactive) | – | > 100 µM (inactive) | > 100 µM (inactive) | > 100 µM (inactive) | > 100 µM (inactive) | > 100 µM (inactive) | > 100 µM (inactive) | > 100 µM (inactive) | > 100 µM (inactive) | > 100 µM (inactive) | > 100 µM (inactive) | > 100 µM (inactive) | > 100 µM (inactive)
N#Cc1c(O)c(/C=N/c2ccc(Cl)cc2)c(=O)n2c1[nH]c1ccccc12 | > 100 µM (inactive) | > 100 µM (inactive) | > 100 µM (inactive) | > 100 µM (inactive) | > 100 µM (inactive) | > 100 µM (inactive) | > 100 µM (inactive) | > 100 µM (inactive) | > 100 µM (inactive) | > 100 µM (inactive) | > 100 µM (inactive) | > 100 µM (inactive) | > 100 µM (inactive) | > 100 µM (inactive) | > 100 µM (inactive) | > 100 µM (inactive) | > 100 µM (inactive) | > 100 µM (inactive) | > 100 µM (inactive)
Cc1ccc(S(=O)(=O)N2CCSCCN(S(=O)(=O)c3ccc(C)cc3)CCN(S(=O)(=O)c3ccc(C)cc3)CC2)cc1 | 69.7 µM (inactive) | > 100 µM (inactive) | > 100 µM (inactive) | 47.5 µM (inactive) | > 100 µM (inactive) | 0.184 µM (active) | > 100 µM (inactive) | > 100 µM (inactive) | > 100 µM (inactive) | 17.4 µM (inactive) | 37.8 µM (inactive) | > 100 µM (inactive) | > 100 µM (inactive) | 30.1 µM (inactive) | 8.75 µM (inactive) | > 100 µM (inactive) | 56.2 µM (inactive) | – | 92.7 µM (inactive)
O=C(NC(N1CCN(c2cc3c(cc2F)c(=O)c(C(=O)O)cn3C2CC2)CC1)(C(F)(F)F)C(F)(F)F)c1ccccc1 | 30.4 µM (inactive) | 39.7 µM (inactive) | 19.1 µM (inactive) | 35.6 µM (inactive) | 23.8 µM (inactive) | 33.8 µM (inactive) | 24.1 µM (inactive) | 39.4 µM (inactive) | 47.4 µM (inactive) | 22.2 µM (inactive) | 46 µM (inactive) | 55.8 µM (inactive) | 26 µM (inactive) | 34.1 µM (inactive) | 35.6 µM (inactive) | 33.3 µM (inactive) | 36.3 µM (inactive) | 29.2 µM (inactive) | 30.5 µM (inactive)
COC(=O)[C@H](Cc1ccccc1)NC(=O)N(CCC#N)CCCCN(CCC#N)C(=O)N[C@@H](Cc1ccccc1)C(=O)OC | > 100 µM (inactive) | > 100 µM (inactive) | > 100 µM (inactive) | > 100 µM (inactive) | > 100 µM (inactive) | > 100 µM (inactive) | – | > 100 µM (inactive) | > 100 µM (inactive) | > 100 µM (inactive) | > 100 µM (inactive) | > 100 µM (inactive) | > 100 µM (inactive) | > 100 µM (inactive) | > 100 µM (inactive) | > 100 µM (inactive) | – | > 100 µM (inactive) | > 100 µM (inactive)
O=C1CCCCC(=O)OC2(CCCCC2=O)CC1 (stereo not drawn) | > 100 µM (inactive) | > 100 µM (inactive) | > 100 µM (inactive) | – | > 100 µM (inactive) | > 100 µM (inactive) | > 100 µM (inactive) | > 100 µM (inactive) | > 100 µM (inactive) | > 100 µM (inactive) | > 100 µM (inactive) | > 100 µM (inactive) | > 100 µM (inactive) | > 100 µM (inactive) | > 100 µM (inactive) | > 100 µM (inactive) | > 100 µM (inactive) | > 100 µM (inactive) | > 100 µM (inactive)
Nc1ncnc2c1ccn2COC(CO)CO | > 100 µM (inactive) | > 100 µM (inactive) | – | > 100 µM (inactive) | > 100 µM (inactive) | > 100 µM (inactive) | > 100 µM (inactive) | > 100 µM (inactive) | 79.6 µM (inactive) | > 100 µM (inactive) | > 100 µM (inactive) | > 100 µM (inactive) | > 100 µM (inactive) | > 100 µM (inactive) | > 100 µM (inactive) | 37.4 µM (inactive) | > 100 µM (inactive) | > 100 µM (inactive) | > 100 µM (inactive)
